Here are results for 6 compounds from patent US20090221610A1, “Compositions and Methods for Treating Cognitive Disorders” (Yale University, priority 2006, published 2009).

One assay has as its system PFC neurons. The experiment in a line: Single neuron recording and iontophoresis in monkeys performing a spatial WM (ODR) task. In kind it is in vivo, rhesus monkeys. To be noted: for Decreased: percent of neurons, spatial delay-related firing / Un-changed: number of neurons, spatial delay-related firing / Un-changed: percent of neurons, spatial delay-related firing / Decreased: number of neurons, spatial delay-related firing / Increased: percent of neurons, spatial delay-related firing / Increased: number of neurons, spatial delay-related firing of PFC neurons / Increased: number of neurons, spatial delay-related firing: iontophoresis; for Increased: number of neurons, spatial delay-related firing of PFC neurons: low dose 5-15 nA (text: ZD7288 10 nA); for Increased: number of neurons, spatial delay-related firing: no dose in table (text: Sp-cAMPS 10 nA, Rp-cAMPS 40-50 nA); for Reversal of the enhancing effects of guanfacine on delay-related activity: co-iontophoresis with guanfacine (yohimbine 15 nA; Sp-cAMPS 10 nA); for Reversal: number of neurons / Reversal: percent of neurons / No Reversal: number of neurons / No Reversal: percent of neurons: co-iontophoresis. As to the method: Studies were performed on 4 adult male rhesus monkeys trained on the spatial ODR task (FIG. 3). Iontophoretic electrodes, neuronal recording and drug delivery were as described in (Wang et al., 2004) and also are provided in the Supplemental Material. Guanfacine, yohimbine, ZD7288(Tocris, Ellisville, Mo.) and etazolate (Sigma, St. Louis, Mo.) were dissolved at 0.01M in triple-distilled water (adjusted with HCl to pH 3.5-4.0). Sp-cAMP and Rp-cAMP (Sigma) were dissolved at 0.01M in triple-distilled water (adjusted with NaOH to pH 9). Two-way ANOVA was used to examine the spatial tuned task-related activity with regard to: (1) different periods of the task (cue, delay, response vs. fixation) and (2) different cue locations. One-way ANOVAs were employed to assess the effect of the drug application on cells displaying delay-related activity. Monkeys performed an oculomotor spatial delayed response (ODR) task, illustrated in FIG. 3A. The ODR task requires the monkey to make a memory-guided […] to a visuo-spatial target. Stimulus position was randomized over trials to ensure use of WM. Neurons were recorded from area 46 of the dorsolateral PFC (FIG. 3B) as the monkey performed the task. […] In the present study, 128 neurons with delay-related mnemonic activity were isolated and subjected to iontophoretic application of pharmacological agents See Table 1, below summarizing the effects of drugs (Table 1) and their reversal (Table 2) on PFC neuronal response.

The subject of assay [1] is rat prefrontal cortex. Description: Spatial delayed alternation task in a T maze after intra-PFC infusion. In kind it is in vivo.
The subject of assay [2] is rat prefrontal cortex. Described as above. In kind it is in vivo. How it is done:
Rats (n=5) were tested on the spatial delayed alternation task in a T maze, a classical test of prefrontal cortical function in rodents (Larsen and Divac, Physiolog Psychol, 6:15-17, 1978). Rats were trained on the task, and then implanted with cannula aimed at the prelimbic prefrontal cortex as described in (Ramos, et al., Neuron, 40:835-845, 2003). Following recovery from surgery, rats were infused with saline (0.5 μl), the Ih channel blocker ZD7288 (0.0001 μg/0.5 μl), the cAMP analog […]), or a combination of ZD7288 (0.0001 μ[…] (0.21 nmol). There was at least one week washout between drug treatments, and a within subjects comparison was performed (2 way analysis of variance with repeated measures with user defined contrasts). […] Male Sprague Dawley rats (240-260 g; Taconic, Germantown, N.Y.) were trained on the delayed alternation task as described in Ramos et al., 2003. Guide cannula were implanted dorsal in prelimbic PFC (AP: +3.2 mm; ML: ±0.75 mm; DV: -4.2 mm). For infusions, needles reached to 4.5 mm DV; infused at 0.25 μL/min for 2 min. Drug or vehicle was administered in a counterbalanced order with at least 1 week between infusions. […] The experimenter was blind to treatment.
The source holds these as a separate data set.

In another assay the test system is ferret PFC slices. Description: In vitro extracellular multiple unit and intracellular recording from PFC slices. In kind it is cell-based. To be noted: bath application 20-50 micromolar. How it is done:
Methods for extracellular multiple unit and intracellular recording in ferret PFC slices have been detailed elsewhere (Shu et al., 2003). Slices (0.4 mm) from 2-4 month old ferret PFC were maintained in either an interface or submerged chamber (35-36° C.) in a slice solution containing (in mM): NaCl, 126; KCl, 3.1; MgSO4, 1; NaHPO4, 1.25; CaCl2, 1; NaHCO3, 26; dextrose, 10, and aerated with 95% O2, 5% CO2 to a final pH of 7.4. Simultaneous extracellular multiple unit and intracellular recordings were performed in layer 5 with the electrodes approximately […] of one another. Intracellular micropipettes contained 2 M potassium acetate, while whole cell recording pipettes contained KGluconate 140, KCl 3, MgCl2 2, Na2ATP 2, HEPES 10, and EGTA 0.2. The cellular and network consequences of modulation of HCN channels was examined with intracellular and whole cell recordings from layer 5 pyramidal cells simultaneously with extracellular multiple unit recordings in the ferret PFC in vitro (n=55, see FIG. 6G). Under normal conditions, these slices generate Up and Down states, consisting of repeating periods of recurrent network activity (Shu et al., 2003).

[3] abbreviates: no dose in table (yohimbine 15 nA, Sp-cAMPS 10 nA, etazolate 25 nA).
Setting [4] is: iontophoresis 10 nA, example neuron.

“Also recorded” adds a separate entry of the source.

Turning to `CCOC(=O)c1cnc2c(cnn2CC)c1NN=C(C)C` [Etazolate], in the assay with PFC neurons (no dose in table), the “Decreased: percent of neurons, spatial delay-related firing” value (shortened to “Decreased: percent of neurons”) is recorded as “(83%)”; the “Un-changed: number of neurons, spatial delay-related firing” value (“Un-changed: number of neurons” for short) is 2; the “Un-changed: percent of neurons, spatial delay-related firing” value (“Un-changed: percent of neurons” for short) is on record as 17%. The “Decreased: number of neurons, spatial delay-related firing” value (“Decreased: number of neurons” for short) in the assay on PFC neurons (setting [3]) is recorded as 10.
Turning to `NC(N)=NC(=O)Cc1c(Cl)cccc1Cl` [Guanfacine, N-(diaminomethylidene)-2-(2,6-dichlorophenyl)acetamide], the “Effect on delay-related firing for the preferred direction” value in the assay with PFC neurons (setting [4]) was “substantially increased; also recorded: significantly increased”. Besides, in the assay on PFC neurons (iontophoresis 50 nA, higher dose), the “Effect on delay-related firing” value is recorded as “did not have enhancing effects”. Moreover, in the assay with PFC neurons (5-15 nA), the “Increased: percent of neurons, spatial delay-related firing” value (shortened to “Increased: percent of neurons”) is listed as “(80%)”; the “Un-changed: number of neurons” value came out at 7; the “Un-changed: percent of neurons” value worked out at 20%. Besides, in the assay on PFC neurons (20-50 nA), the “Decreased: percent of neurons” value is listed as “(100%)”. In addition, the “Decreased: number of neurons” value in the assay with PFC neurons (high dose 20-50 nA) came to 9. Further, the “Increased: number of neurons, spatial delay-related firing of PFC neurons” value in the assay with PFC neurons was 28. For the same compound, in the assay on rat prefrontal cortex [1] (aged rats (n=9), prefrontal infusion 0.0001 μg), the “Spatial working memory performance (percent correct, delayed alternation)” value was “significantly different than saline”.
Take `Nc1ncnc2c1ncn2[C@@H]1O[C@@H]2COP(O)(=S)O[C@H]2[C@H]1O` (stereo partly drawn) [Rp-cAMP]: the “Effect on delay-related firing for the preferred direction” value in the assay on PFC neurons (iontophoresis 40-50 nA) is listed as “specifically increased”. For the same compound, in the assay with PFC neurons (no dose in table), the “Increased: percent of neurons” value was “(67%)”; the “Un-changed: number of neurons” value stood at 4; the “Un-changed: percent of neurons” value was determined as 33%. Besides, the “Increased: number of neurons, spatial delay-related firing” value with PFC neurons is on record as 8. In addition, the “Increased: number of neurons, spatial delay-related firing” value in the assay with PFC neurons (listed as Rp-cAMPS) amounted to 8.
With `Nc1ncnc2c1ncn2[C@@H]1O[C@@H]2COP(O)(=S)O[C@H]2[C@H]1O` (stereo partly drawn) [Sp-cAMP], in the assay on PFC neurons, the “Reversal of the enhancing effects of guanfacine on delay-related activity” value is given as “significantly reversed” and the “Increased: number of neurons, spatial delay-related firing” value was 9. In addition, in the assay on PFC neurons (reversal of Rp-cAMP), the “Reversal: number of neurons” value is reported as 6 and the “Reversal: percent of neurons” value is listed as “(100%)”. Besides, in the assay with PFC neurons (reversal of guanfacine), the “No Reversal: number of neurons” value is given as 3, the “No Reversal: percent of neurons” value is reported as 33%, the “Reversal: number of neurons” value was 6 and the “Reversal: percent of neurons” value is “(67%)”. Moreover, the “Effect on delay-related firing for the preferred direction” value in the assay on PFC neurons (setting [4]) is reported as “significantly decreased”. Moreover, in the assay on PFC neurons (no dose in table), the “Decreased: percent of neurons” value is “(48%)”; the “Increased: percent of neurons” value is given as “(33%)”; the “Un-changed: number of neurons” value is reported as 5; the “Un-changed: percent of neurons” value is on record as 19%. In the assay with PFC neurons (listed as Sp-cAMPS), the “Increased: number of neurons, spatial delay-related firing” value turned out to be 9. In the assay on PFC neurons (setting [3]), the “Decreased: number of neurons” value was determined as 13. Besides, in the assay with PFC neurons (no dose in table, listed as Sp-cAMPS), the “Un-changed: number of neurons” value is listed as 5. For the same compound, the “Reversal of the enhancing effect of Rp-cAMPS on delay-related firing” value with PFC neurons (subsequent co-iontophoresis with Rp-cAMPS) is “reversed”. The “Effect of co-infusion on the guanfacine effects on working memory” value in the assay with rat prefrontal cortex [1] (aged rats, co-infusion with guanfacine) is on record as “reversed”. In the assay on rat prefrontal cortex [2] (co-infusion 0.21 nmol with ZD7288 0.0001 μg, listed as Sp-cAMPS), the “Effect of co-infusion on the ZD7288 improvement of working memory” value is “significantly reversed; also recorded: blocked; also recorded: significantly reduced”. Further, in the assay on rat prefrontal cortex [2] (intra-PFC infusion 0.21 nmol/0.5 μl alone), the “Spatial working memory performance compared to saline” value is “no effect on its own”.
In the case of `COC(=O)[C@@H]1[C@H]2C[C@H]3c4[nH]c5ccccc5c4CCN3C[C@@H]2CC[C@@H]1O` [Yohimbine], the “Reversal of the enhancing effects of guanfacine on delay-related activity” value in the assay with PFC neurons is on record as “reversed”. Further, in the assay on PFC neurons (reversal of guanfacine), the “Reversal: number of neurons” value was 6 and the “Reversal: percent of neurons” value is “(100%)”. The “Effect on delay-related activity for the preferred direction” value in the assay with PFC neurons (iontophoresis 15 nA) was “dramatically suppressed”. Moreover, the “Decreased: percent of neurons” value in the assay with PFC neurons (no dose in table) was “(100%)”. The “Decreased: number of neurons” value with PFC neurons (setting [3]) came to 15.
Take `CCN(c1ccccc1)c1cc(NC)[n+](C)c(C)n1.[Cl-]` [ZD7288]: in the assay with PFC neurons (co-iontophoresis with etazolate), the “Reversal of the reduction in delay-related firing induced by etazolate” value is “fully reversed”. Moreover, the “Reversal of the yohimbine suppression of delay-related activity” value with PFC neurons (co-iontophoresis with yohimbine (15 nA)) is reported as “significantly reversed”. In the assay on PFC neurons (reversal of etazolate), the “No Reversal: number of neurons” value came to 2, the “No Reversal: percent of neurons” value is on record as 25%, the “Reversal: number of neurons” value was 6 and the “Reversal: percent of neurons” value is on record as “(75%)”. In the assay with PFC neurons (reversal of yohimbine), the “No Reversal: number of neurons” value stood at 2, the “No Reversal: percent of neurons” value is 31%, the “Reversal: number of neurons” value is reported as 7 and the “Reversal: percent of neurons” value is given as “(71%)”. In addition, the “Reversal: number of neurons” value in the assay with PFC neurons (reversal of yohimbine, listed as ZD 7288) is on record as 5. Moreover, the “Effect on delay-related firing for the preferred direction” value with PFC neurons (iontophoresis 5 nA, example neuron) is recorded as “significantly increased”. In the assay on PFC neurons (setting [4]), the “Effect on delay-related firing for the preferred direction” value is on record as “further enhanced”. Moreover, in the assay with PFC neurons (iontophoresis 40 nA, highest concentration), the “Effect on delay-related firing” value is “decreased rather than increased firing”. Also, in the assay on PFC neurons (5-15 nA), the “Increased: percent of neurons” value is given as “(70%)”; the “Un-changed: number of neurons” value came out at 8; the “Un-changed: percent of neurons” value worked out at 30%. In the assay with PFC neurons (20-50 nA), the “Decreased: percent of neurons” value was “(100%)”. For the same compound, the “Decreased: number of neurons” value in the assay with PFC neurons (high dose 20-50 nA) is 10. The “Increased: number of neurons, spatial delay-related firing of PFC neurons” value in the assay with PFC neurons is 19. In the assay with ferret PFC slices, the “Number of action potentials generated by a depolarizing current pulse” value is recorded as “increase”. For the same compound, in the assay with ferret PFC slices (from 1.8±1.7 Hz, n=9), the “Up-state action potential discharge” value came to 9.2±4.9 Hz. Further, the Apparent input resistance with ferret PFC slices (from 18.6±7.5, n=10) stood at 36±10.8 Mohms. Moreover, the “Duration of the recurrent network activity of the Up state” value in the assay on ferret PFC slices (from an average of 0.84 (±0.25) before) was 4.1 (±1.3) sec. In the assay with ferret PFC slices (n=10), the “Increase in duration of the recurrent network activity of the Up state” value is about 500%. In the assay with ferret PFC slices (n=12), the “Membrane potential of layer 5 pyramidal neurons” value was “progressive hyperpolarization”. The “Spatial working memory performance (percent correct, delayed alternation) compared to saline” value in the assay on rat prefrontal cortex [2] (intra-PFC infusion 0.0001 μg/0.5 μl, n=5) was “significantly improved”.
